From ChEMBL document CHEMBL4043279 (Bioorg Med Chem Lett, 2017)

Key:
HepG2 = experiment: Antiproliferative activity against human HepG2 cells treated for 24 hrs measured after 72 hrs by MTT assay; format: functional, cell-based
THP-1 = experiment: Antiproliferative activity against human THP1 cells treated for 24 hrs measured after 72 hrs by MTT assay; format: functional, cell-based
HL-60 = experiment: Antiproliferative activity against human HL60 cells treated for 24 hrs measured after 72 hrs by MTT assay; format: functional, cell-based
PBMC = experiment: Antiproliferative activity against human PBMC treated for 24 hrs measured after 72 hrs by MTT assay; format: cell-based
PC-3 = experiment: Antiproliferative activity against human PC3 cells treated for 24 hrs measured after 72 hrs by MTT assay; format: functional, cell-based

| SMILES | IC50 (HepG2) [µM] | IC50 (THP-1) [µM] | IC50 (HL-60) [µM] | IC50 (PBMC) [µM] | IC50 (PC-3) [µM] |
| --- | --- | --- | --- | --- | --- |
| CN1c2ccccc2C(=O)N2CCc3c(n(CCCO)c4ccccc34)C21 (stereo not drawn) | > 100 | 8.89 | 6.03 | > 200 | 27.3 |
| CN1c2ccccc2C(=O)N2CCc3c(n(CCOC(=O)c4ccc(N(CCCl)CCCl)cc4)c4ccccc34)C21 (stereo not drawn) | > 100 | 33.6 | 27.2 | > 200 | > 100 |
| COC(=O)[C@H](Cc1ccc(N(CCCl)CCCl)cc1)NC(=O)CCC(=O)OCCCCCCn1c2c(c3ccccc31)CCN1C(=O)c3ccccc3N(C)C21 (stereo partly drawn) | > 100 | 4.24 | 2.84 | > 200 | > 100 |
| CN1c2ccccc2C(=O)N2CCc3c(n(CCCCCCOC(=O)c4ccc(N(CCCl)CCCl)cc4)c4ccccc34)C21 (stereo not drawn) | > 100 | 3.92 | 23.5 | > 200 | > 100 |
| CN1c2ccccc2C(=O)N2CCc3c(n(CCCOC(=O)CCCc4ccc(N(CCCl)CCCl)cc4)c4ccccc34)C21 (stereo not drawn) | > 100 | 5.68 | 4.3 | > 200 | > 100 |
| CN1c2ccccc2C(=O)N2CCc3c(n(CCCOC(=O)c4ccc(N(CCCl)CCCl)cc4)c4ccccc34)C21 (stereo not drawn) | > 100 | 6.6 | 30.9 | > 200 | > 100 |
| CN1c2ccccc2C(=O)N2CCc3c(n(CCCOCCCO)c4ccccc34)C21 (stereo not drawn) | > 100 | 8.42 | 5.31 | > 200 | 19.9 |
| O=c1[nH]cc(F)c(=O)[nH]1 [FLUOROURACIL] |  | 4.87 | 3.69 |  | 23.9 |
| CN1c2ccccc2C(=O)N2CCc3c(n(CCCCCCOC(=O)CCCc4ccc(N(CCCl)CCCl)cc4)c4ccccc34)C21 (stereo not drawn) | > 100 | 10.5 | 17.5 | > 200 | > 100 |
| COC(=O)[C@H](Cc1ccc(N(CCCl)CCCl)cc1)NC(=O)CCC(=O)O | 13.8 | 3.84 | 5.34 | > 200 | > 100 |
